The record followed here is PubChem BioAssay (NCI).

The structures appear in SMILES notation.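 Growth conditions: 96-well plates. Treatment: test compound, 48 hours, 5 concentrations. Analysis: linear interpolation between bracketing concentrations; unreached endpoints set to highest concentration. At the TGI there is no net growth.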 Where a SMILES comes first, the peptide text is derived from it. [ ]: non-standard residue; d: D form. The star is where a group is joined. ξ: configuration not given here. dThr(3ξ) = CC(O)[C@@H](N)C(=O)O; dNMeL = CN[C@H](CC(C)C)C(=O)O; OBn = c1ccc(CO*)cc1; ξLac = CC(O)C(=O)O A value given as a limit tells only on which side of the number the result lay.

Some test systems named below: SNB-75 CNS; SN12C renal; MDA-N; NCI/ADR-RES ovarian; SK-MEL-5 melanoma; A549 NSCLC; HL-60(TB) leukemia; HS 578T breast; BT-549 breast; SR leukemia; COLO 205 colon; EKVX NSCLC; NCI-H23 lung; MCF7 breast; NCI-H226 lung; SK-MEL-2 melanoma; U251 CNS; ACHN renal; HOP-62 NSCLC; IGROV1 ovarian.
Assay in all cases: inhibition of tumour cell growth, NCI panel, 48 h

For `CCOC(=O)n1[nH]c(=O)n(-c2ccccc2)c1=O`, the TGI with SNB-75 CNS, in the test on SN12C renal, in the test on MDA-N, with NCI/ADR-RES ovarian, in the test with SK-MEL-5 melanoma and in the test on A549 NSCLC was above 100 µM in each case. Moreover, the TGI in the test with HL-60(TB) leukemia, in the test with HS 578T breast, in the test with BT-549 breast, in the test on SR leukemia, in the test with COLO 205 colon and in the test on EKVX NSCLC was above 100 µM throughout. Moreover, the TGI in the test on NCI-H23 lung, with MCF7 breast, in the test on NCI-H226 lung, in the test on SK-MEL-2 melanoma, in the test on U251 CNS and in the test with ACHN renal was above 100 µM throughout. In addition, the TGI in the test on HOP-62 NSCLC and in the test on IGROV1 ovarian was above 100 µM each time.

Regarding `Cn1c(=O)[nH]c2[nH]c3ccccc3c2c1=O`, the TGI in the test with SNB-75 CNS, in the test on SN12C renal, in the test with MDA-N, with NCI/ADR-RES ovarian, with SK-MEL-5 melanoma and with A549 NSCLC was above 100 µM in each case. Further, the TGI in the test with HL-60(TB) leukemia, with HS 578T breast, with BT-549 breast, with SR leukemia, in the test with COLO 205 colon and in the test with EKVX NSCLC was above 100 µM throughout. Also, the TGI with NCI-H23 lung, in the test with MCF7 breast, with NCI-H226 lung, in the test with SK-MEL-2 melanoma, in the test on U251 CNS and in the test with ACHN renal was above 100 µM each time. In addition, the TGI in the test with HOP-62 NSCLC and with IGROV1 ovarian was above 100 µM in each case.

With `CC(=O)OC(C)[C@@H](NC(=O)[C@@H](CC(C)C)N(C)C(=O)[C@@H]1CCCN1C(=O)C(C)O)C(=O)OCc1ccccc1` (some centres undefined) (H-[ξLac]P[dNMeL][dThr(3ξ)](Ac)-OBn), the TGI in the test with SNB-75 CNS, in the test on SN12C renal, in the test with MDA-N, with NCI/ADR-RES ovarian, in the test with SK-MEL-5 melanoma and with A549 NSCLC was above 100 µM throughout. The TGI in the test with HL-60(TB) leukemia, with HS 578T breast, in the test with BT-549 breast, in the test on SR leukemia, in the test on COLO 205 colon and in the test on EKVX NSCLC was above 100 µM throughout. The TGI in the test on NCI-H23 lung, with MCF7 breast, in the test on NCI-H226 lung, with SK-MEL-2 melanoma, in the test with U251 CNS and in the test on ACHN renal was above 100 µM throughout. Moreover, the TGI in the test on HOP-62 NSCLC and in the test with IGROV1 ovarian was above 100 µM in each case.

Consider `O=c1[nH]c(-c2cccc(F)c2)nc2ccccc12`, for which the TGI in the test with SNB-75 CNS was 62.7 µM; in the test on SN12C renal, above 92 µM; in the test with MDA-N, above 100 µM; in the test on NCI/ADR-RES ovarian, above 100 µM; with SK-MEL-5 melanoma it was above 100 µM; in the test on A549 NSCLC, above 100 µM. The TGI with HL-60(TB) leukemia is above 100 µM; in the test on HS 578T breast it was above 78.5 µM; in the test with BT-549 breast it was above 68.8 µM; with SR leukemia it was above 100 µM; with COLO 205 colon, above 100 µM; with EKVX NSCLC, above 100 µM. Also, the TGI with NCI-H23 lung is above 65.8 µM; in the test with MCF7 breast, above 100 µM; in the test with NCI-H226 lung it was above 100 µM; in the test with SK-MEL-2 melanoma, above 100 µM; in the test with U251 CNS it was above 100 µM; in the test with ACHN renal, above 68.7 µM. In addition, the TGI in the test on HOP-62 NSCLC is 52.4 µM; in the test on IGROV1 ovarian, above 100 µM.

Take `COC(=O)C(=O)c1c2ccccc2n2ccc3c4ccccc4[nH]c3c12`: the TGI in the test with SNB-75 CNS, in the test on SN12C renal, with MDA-N, in the test with NCI/ADR-RES ovarian, in the test on SK-MEL-5 melanoma and with A549 NSCLC was above 10 µM each time. In addition, the TGI in the test on HL-60(TB) leukemia, in the test with HS 578T breast, with BT-549 breast, in the test with SR leukemia, in the test with COLO 205 colon and with EKVX NSCLC was above 10 µM each time. Besides, the TGI in the test on NCI-H23 lung, with MCF7 breast, in the test with NCI-H226 lung, in the test with SK-MEL-2 melanoma, with U251 CNS and with ACHN renal was above 10 µM each time. For the same compound, the TGI with HOP-62 NSCLC and in the test on IGROV1 ovarian was above 10 µM each time.

Regarding `NC1CC(=O)c2c(Cl)sc(Cl)c21` (centres undefined), the TGI with SNB-75 CNS came to 26.1 µM; in the test with SN12C renal, 14.4 µM; in the test with MDA-N, 16.4 µM; in the test on NCI/ADR-RES ovarian it was 49.9 µM; in the test with SK-MEL-5 melanoma it was 22.9 µM; in the test with A549 NSCLC, 35.3 µM. The TGI worked out at 6.09 µM with HL-60(TB) leukemia; 70.4 µM in the test with HS 578T breast; 10.7 µM in the test with BT-549 breast; 1.99 µM with SR leukemia; 2.57 µM in the test on COLO 205 colon; 5.07 µM in the test with EKVX NSCLC. The TGI was 25 µM in the test on NCI-H23 lung; 7.9 µM in the test on MCF7 breast; 30.9 µM with NCI-H226 lung; 25 µM with SK-MEL-2 melanoma; 21.5 µM in the test with U251 CNS; 6.14 µM in the test with ACHN renal. Also, the TGI with HOP-62 NSCLC worked out at 34 µM; in the test with IGROV1 ovarian it was 9.84 µM.

With `CC(=O)OCCCCn1cnc2nc(Nc3ccccc3)nc(Cl)c21`, the TGI in the test with SNB-75 CNS, in the test on SN12C renal, in the test on MDA-N, with NCI/ADR-RES ovarian, in the test on SK-MEL-5 melanoma and with A549 NSCLC was above 100 µM in each case. Moreover, the TGI with HL-60(TB) leukemia, with HS 578T breast, with BT-549 breast, in the test on SR leukemia, with COLO 205 colon and in the test on EKVX NSCLC was above 100 µM in each case. Besides, the TGI in the test with MCF7 breast, in the test on NCI-H226 lung, in the test on SK-MEL-2 melanoma, in the test with U251 CNS, in the test on ACHN renal and in the test on HOP-62 NSCLC was above 100 µM in each case. The TGI in the test with IGROV1 ovarian is above 100 µM.
